According to patent EP4613273A1, “TREATMENT OF BONE LOSS” (priority 2024, dated 2025):
Structures can show the parent of a compound that is named as a salt.

Assay: Tolerance, hematology, biochemistry and calcium during 90-day treatment in dogs with periodontal disease
Assay type: in vivo
Design: Platelet: unit not given here
Conditions: for Alanine transferase / Albumin / Albumin/Globulin ratio / Alkalin phosphatase / BUN/Creatinine ratio / Basophil / Creatinine / Eosinophil / Globulin / Glucose / HCT / HGB / Lymphocyte / MCH / MCHC / MCV / Monocyte / Neutrophil / Platelet / RBC / Reticulocyte / Total calcium / Total protein / Urea: mean
Protocol: The present study was performed on 10 Beagle dogs suffering from alveolar bone loss induced by spontaneously developed periodontal disease. All dogs were treated with MIV-701 besylate salt for minimum 30 day and maximum 90 days, depending on the tolerance at intermediate visits. The product is administrated to the dog by its owner at home, once a day with a meal.
There were two treatment groups: • Group A (5 dogs) with a dose of 25 mg/kg. • Group B (5 dogs) with a dose of 50 mg/kg.
Treatment was administrated for 90 days. Every 30 days, based on the results of clinical exam, blood parameters and potential occurrence of adverse events suspected to be drug-related, the treatment prolongation for another 30 days, or discontinuation of treatment was decided by the Investigator.
Whole blood sample for hematology analysis was collected at visit V1 (between Day -7 and Day 0), visit V3 (Day 30+3 days), Visit V4 (Day 60t 3 days) and Visit V5 (Day 90t 3 days).
The result from visit V1 (between Day -7 and Day 0) was used as a baseline value for the safety evaluation criteria.
Each time 1 ml of the peripheral whole blood was collected on a tube with anti-coagulant (EDTA) and gently inverted several times. A complete blood count: WBC with details of lymphocytes, monocytes and polynuclear cells (neutrophils, eosinophils and basophils); Red blood cells (RBC); Hematocrit (HCT); Hemoglobin (HGB); Reticulocytes (RETIC); Mean corpuscular volume (MCV); Mean Corpuscular Hemoglobin (MCH); Mean Corpuscular Hemoglobin Concentration (MCHC); platelets count (PLT) was performed.
Whole blood sample for biochemistry analysis was collected at visit V1 (between Day -7 and Day 0), visit V3 (Day 30+3 days), Visit V4 (Day 60t 3 days) and Visit V5 (Day 90t 3 days).
Each time 1.3 ml of the peripheral whole blood was collected on lithium heparin tube and gently inverted several times. Next, sample was centrifuged at 2500 G for 5 minutes at room temperature and heparin plasma will be collected. The following biochemical parameters: Albumin, Alanine transaminase (ALT), Alkaline phosphatase (ALP), creatinine, globulins, glucose, Total proteins, Urea, Albumin/globulin ratio and urea/creatinine ratio were analyzed.

[1] = dogs with periodontal disease, 90-day treatment
[2] = Day 30, 25 or 50 mg/kg/day oral
[3] = Day 60, 25 or 50 mg/kg/day oral
[4] = Day 90, all dogs 50 mg/kg/day for last 30 days

Compound: CC(C)C[C@H](NC(=O)c1ccc(-c2csc(N3CCN(C)CC3)n2)cc1)C(=O)N1C[C@H](F)[C@H]2OCC(O)(O)[C@H]21 [MIV-701 besylate salt, N-[(S)-1-((3aS,6S,6aS)-6-Fluoro-S-oxo-hexahydro-furo[3,2-b]pyrrole-4-carbony)-3-methyl-butyl]-4-[2-(4-methyl-piperazin-1-yl)-thiazol-4-yl]-benzamide benzenesulphonate]
- death and Serious Adverse Event (SAE) [1]: No death and no Serious Adverse Event (SAE)
- evolution of blood cell count and clinical biochemistry parameters [1]: No safety concern
- tolerance (dogs with periodontal disease, once-a-day 25 and 50 mg/kg/day, 90-day treatment period): well tolerated
- Alanine transferase [2]: 37,9 U/L
- Albumin [2]: 26,3 g/L
- Albumin/Globulin ratio [2]: 0,61
- Alkalin phosphatase [2]: 31,5 U/L
- BUN/Creatinine ratio [2]: 17,8
- Basophil [2]: 0,03 10^9/L
- Creatinine [2]: 57,8 µmol/L
- Eosinophil [2]: 1,3 10^9/L
- Globulin [2]: 43,6 g/L
- Glucose [2]: 5,3 mmol/L
- HCT [2]: 41,8%
- HGB [2]: 14,2 g/DL
- Lymphocyte [2]: 1,7 10^9/L
- MCH [2]: 21,5 pg
- MCHC [2]: 33,9 g/DL
- MCV [2]: 63,5 fL
- Monocyte [2]: 0,8 10^9/L
- Neutrophil [2]: 7,7 10^9/L
- Platelet [2]: 381,3
- RBC [2]: 6,6 10^12/L
- Reticulocyte [2]: 32,0 K/µL
- Total calcium [2]: 2,4 mmol/L
- Total protein [2]: 7,0 g/dL
- Urea [2]: 4,0 mmol/L
- Alanine transferase [3]: 41,7 U/L
- Albumin [3]: 26,9 g/L
- Albumin/Globulin ratio [3]: 0,65
- Alkalin phosphatase [3]: 31,6 U/L
- BUN/Creatinine ratio [3]: 21,7
- Basophil [3]: 0,03 10^9/L
- Creatinine [3]: 62,7 µmol/L
- Eosinophil [3]: 1,2 10^9/L
- Globulin [3]: 40,6 g/L
- Glucose [3]: 5,7 mmol/L
- HCT [3]: 40,0%
- HGB [3]: 13,6 g/DL
- Lymphocyte [3]: 1,7 10^9/L
- MCH [3]: 21,8 pg
- MCHC [3]: 33,8 g/DL
- MCV [3]: 64,6 fL
- Monocyte [3]: 0,7 10^9/L
- Neutrophil [3]: 7,0 10^9/L
- Platelet [3]: 384,8
- RBC [3]: 6,2 10^12/L
- Reticulocyte [3]: 22,9 K/µL
- Total calcium [3]: 2,3 mmol/L
- Total protein [3]: 6,8 g/dL
- Urea [3]: 5,4 mmol/L
- Alanine transferase [4]: 36,8 U/L
- Albumin [4]: 28,3 g/L
- Albumin/Globulin ratio [4]: 0,65
- Alkalin phosphatase [4]: 45,4 U/L
- BUN/Creatinine ratio [4]: 22,8
- Basophil [4]: 0,02 10^9/L
- Creatinine [4]: 60,2 µmol/L
- Eosinophil [4]: 1,2 10^9/L
- Globulin [4]: 43,0 g/L
- Glucose [4]: 5,7 mmol/L
- HCT [4]: 40,1%
- HGB [4]: 13,6 g/DL
- Lymphocyte [4]: 1,7 10^9/L
- MCH [4]: 22,2 pg
- MCHC [4]: 33,8 g/DL
- MCV [4]: 65,7 fL
- Monocyte [4]: 0,9 10^9/L
- Neutrophil [4]: 8,3 10^9/L
- Platelet [4]: 423,0
- RBC [4]: 6,2 10^12/L
- Reticulocyte [4]: 29.5 K/µL
- Total calcium [4]: 2,4 mmol/L
- Total protein [4]: 7,1 g/dL
- Urea [4]: 5,4 mmol/L
- dogs with one episode of diarrhea of mild intensity for 2 days (of 10 dogs, spontaneously resolved under treatment): 2 dogs
